Measured values: patent publication US20240238256A1, “NITAZOXANIDE IN THE TREATMENT OF SEPSIS” (GENFIT, priority 2021, published 2024)

Experiments:
[1] = system: caspase 3/7 activity in HepG2 cells; test: TNFα-induced apoptosis (caspase 3/7 activity) in HepG2 cells; assay type: cell-based, human; conditions: for increased caspase 3/7 activity: 24 hours
Protocol: In order to evaluate the effect of NTZ on human hepatocytes that undergo a cellular stress induced by cytokines, the human hepatoblastoma-derived HepG2 cell line (#85011430, ECACC, UK) was cultured with or without TZ, the active metabolite of NTZ, in high-glucose DMEM medium (#41965, Gibco, France) supplemented with 10% of fetal bovine serum (FBS, #10270, Gibco), 1% penicillin/streptomycin (#15140, Gibco), 1% sodium pyruvate (#11360, Gibco) and 1% MEM non-essential amino acids (#11140, Gibco) in a 5% CO2 incubator at 37° ° C. To evaluate caspase 3/7 activity, which is a surrogate marker of apoptosis, 5×10^4 cells were plated in a 96-well plate (Thermo Fischer, Germany). After cell adherence (8 hours), cells were pre-treated with a dose range of 0.3 to 3 μM of TZ (Interchim, France), in FBS-deprived cell culture medium for 16 h. Thereafter, tumor necrosis factor α (TNFα) (#C6378, Promocell, Germany) was added to the wells at the dose of 10 or 30 ng/ml for additional 24 hours. Staurosporine (10 μM) (#19-123MG, Sigma-Aldrich, Germany) was used as a reference to induce apoptosis. Cells were incubated with staurosporine 3 hours before Caspase activity measurement. Caspase 3/7 activity was measured using Caspase Glow™ 3/7 assay (#G8093, Promega, USA). Luminescence was measured using a Spark microplate reader (#30086376, Tecan, USA). The amount of luminescence (RLU) directly correlates with caspase 3/7 activity.

[2] = system: caspase 3/7 activity in HepG2 cells; test: Staurosporine-induced apoptosis (caspase 3/7 activity) in HepG2 cells; assay type: cell-based, human; conditions: for inhibition at 6 µM: Homo sapiens, HepG2, 6 μM
Protocol: The human hepatoblastoma-derived HepG2 cell line was cultured as described in Example 2. Caspase 3/7 activity was assessed in 1.5×10^4 cells plated in a 384-well plate (#781080, Greiner, France). After cell adherence (8 hours), cells were serum starved for 16 h with or without TZ, the active metabolite of NTZ. […] Caspase 3/7 activity was measured as previously described.

[3] = system: polymicrobial sepsis induced by cecal ligation and puncture (CLP); test: CLP-induced polymicrobial sepsis, survival (Example 1); assay type: in vivo, C57BL6J male mice
Text: Polymicrobial sepsis induced by cecal ligation and puncture (CLP) is characterized by dysregulated systemic inflammatory responses followed by immunosuppression. The CLP model in mice mimics the progression and features of human sepsis and is thus also useful to determine whether a drug would be efficient in the treatment of prevention of transition from sepsis to septic shock.
This study aims to investigate the efficacy of NTZ in CLP model in C57BL6J (BL6) male mice. The efficacy of the test compound was evaluated based on the survival rate of the animals within the study period.
C57BL6J male mice (supplier Janvier—France) at 9 weeks of age and weighing 23-25 g on arrival were anesthetized with 250 µL of xylazine/ketamine solution (6.75 mg/kg for ketamine (Imalgene, Boehringer, Germany) et 2.5 mg/kg for xylazine (Rompund 2%, Bayer, Germany)) by intraperitoneal route. A 1-1.5 cm abdominal midline incision was made, and the cecum was located and tightly ligated at half the distance between distal pole and the base of the cecum with 4-0 silk suture (mild grade). The caecum was punctured through-and-through once with a 21-gauge needle from mesenteric toward antimesenteric direction after medium ligation. A small amount of stool was extruded to ensure that the wounds were patent. Then the cecum was replaced in its original position within the abdomen, which was closed with sutures and wound clips. Mice were followed for body weight evolution and mortality rate until Day 7.
NTZ (Interchim, France) was administered by oral gavage at 50 mg/kg BID. NTZ treatment was initiated 3 days before CLP. The day of the surgery, NTZ was given once (50 mg/kg) 1 h before CLP and then a second time when animals have recovered from anesthesia (50 mg/kg). BID treatments was then pursued daily until the end of the study (n=15). Mice receiving NTZ vehicle (carboxymethylcellulose (#C4888, Sigma-Aldrich, Germany) BID served as controls (n=10). […]

[4] = system: polymicrobial sepsis induced by CLP surgery; test: CLP-induced sepsis, survival and welfare scoring, NTZ with or without 3-day pretreatment (Example 4); assay type: in vivo, C57BL6J mice; conditions: for mortality at 55 hours post-surgery: control group 60%; for mice survived sepsis at the end of the study: untreated 12.5%
Protocol: Polymicrobial sepsis was induced by CLP surgery in C57BL6J mice, as described in Example 1. NTZ was prepared as previously described and administrated per os at 100 mg/kg/day BID either starting 3 days before CLP (3 day pretreatment) or starting on the same day as the CLP surgery (without pretreatment) as shown in FIG. 5A. C57BI/6J male mice (8 week-old, Janvier, France) were divided into 3 groups of 24 mice each, after 7 days acclimation: • Group 1 received vehicle for 3 days before surgery and for 6 days after CLP surgery. • Group 2 received nitazoxanide (NTZ) for 3 days before surgery and then for 6 days after CLP surgery (pretreatment). • Group 3 received vehicle for 3 days before surgery and then NTZ for 6 days after CLP surgery (without pretreatment).
Treatments with NTZ were made twice daily at 9 am and […]. The day of the CLP surgery (Day 0), mice received NTZ or vehicle one hour before being anaesthetized (groups 2 and 3).
Welfare scoring of severity of murine sepsis model has been published to harmonize human end points and also to normalize grades observed between animals throughout experiments (Shrum B, Anantha R V, Xu S X et al. A robust scoring system to evaluate sepsis severity in an animal model. BMC Res Notes 2014; 7:233). Animals were individually observed, and changes were recorded and scored according to their intensity. Observations included changes in appearance, activity, response to stimuli, eyes opening, breathing quality and evolution of body weight. For each of these clinical signs, the severity was measured on a scale of 0 to 3. The evolution of the severity was followed and the mean score at each time point was calculated and plotted on graphs. Arbitrary, when mice die or are euthanized, they are scored at 4.

[5] = system: polymicrobial sepsis induced by CLP surgery; test: CLP-induced sepsis, survival and welfare scoring, NTZ before/after or only after surgery (Example 5); assay type: in vivo, C57BL6J mice; conditions: for mortality at 55 hours post-surgery: control group 55%; for mice survived sepsis at the end of the study (day 7): untreated 20%
Protocol: Polymicrobial sepsis was induced by CLP surgery in C57BL6J mice, and NTZ was prepared and administrated per os, as described previously. […]
During the 6 days following the surgery, treatments with NTZ were made twice daily at 9 am and 5 pm at the dose of 100 mg/kg/day (p.o. BID) per mouse. Control mice received vehicle the same way to avoid any deviations between control and treated mice.

[6] = concomitant addition with staurosporine, without pretreatment
[7] = NTZ per os 100 mg/kg/day BID from day of CLP, without pretreatment
[8] = NTZ per os 100 mg/kg/day BID with 3-day pretreatment
[9] = NTZ BID T-1 h/T+3.5 h, 100 mg/kg/day p.o.
[10] = NTZ QD T+3.5 h (100 mg/kg) then 50 mg/kg BID p.o.

**Q.** Which “increased caspase 3/7 activity” value ([1]; 10 ng/ml TNFα) does the source give for TNFα here?
**A.** 1.5 fold

**Q.** And the “increased caspase 3/7 activity” value ([1]; 30 ng/ml TNFα)?
**A.** 1.7 fold

**Q.** For `CN[C@@H]1C[C@H]2O[C@@](C)([C@@H]1OC)n1c3ccccc3c3c4c(c5c6ccccc6n2c5c31)C(=O)NC4` [staurosporine], which “increase of caspase 3/7 activity” value ([2]; staurosporine 30 μM, 4 hours) is on record?
**A.** 11 fold

**Q.** `C[C@@H](O)[C@H]1C(=O)N2C(C(=O)O)=C(S[C@@H]3CN[C@H](C(=O)Nc4cccc(C(=O)O)c4)C3)[C@H](C)[C@H]12` [Ertapenem] was tested. Which “mice saved at the end of the study” value ([3]; Ertapenem 10 mg/kg intraperitoneal, 1 h before surgery and daily after CLP, Day 7) did it give?
**A.** 10%

**Q.** With `O=C(Nc1ncc([N+](=O)[O-])s1)c1ccccc1O` [TZ, tizoxanide] as the compound, how does the inhibition at 3 µM ([1]; Homo sapiens, 3 μM TZ, 16 h pretreatment, 10 ng/ml TNFα) read?
**A.** 40%

**Q.** And the “reduction of caspase activity” value ([1]; TZ pretreatment, higher TNFα dose (30 ng/ml))?
**A.** this effect was confirmed with the higher TNFα dose

**Q.** And the inhibition at 6 µM ([2]; 16 h pretreatment, staurosporine 30 μM)?
**A.** 82%

**Q.** And the inhibition at 6 µM [2, 6]?
**A.** 64%

**Q.** With `CC(=O)Oc1ccccc1C(=O)Nc1ncc([N+](=O)[O-])s1` [NTZ, [2-[(5-nitro-1,3-thiazol-2-yl)carbamoyl]phenyl]ethanoate] as the compound, how does the “mice survived 7 days after intervention” value ([3]; NTZ oral gavage 50 mg/kg BID, started 3 days before CLP) read?
**A.** 33%

**Q.** And the “mice still alive 3 days after surgery” value ([3]; NTZ oral gavage 50 mg/kg BID, started 3 days before CLP, vehicle group 100% mortality at 3 days)?
**A.** 47%

**Q.** What about the inhibition at 6 µM [2, 6] of the same compound?
**A.** 78%

**Q.** And the “mortality at 55 hours post-surgery” value [4, 7]?
**A.** 17%

**Q.** What about the “mice survived sepsis at the end of the study” value [4, 7] of the same compound?
**A.** 58.3%

**Q.** And the “mortality at 55 hours post-surgery” value [4, 8]?
**A.** 25%

**Q.** What about the “mice survived sepsis at the end of the study” value [4, 8] of the same compound?
**A.** 45.8%

**Q.** What about the “mortality at 55 hours post-surgery” value [5, 9] of the same compound?
**A.** 5%

**Q.** What about the “mice survived sepsis at the end of the study (day 7)” value [5, 9] of the same compound?
**A.** 80%

**Q.** What about the “mortality at 55 hours post-surgery” value [5, 10] of the same compound?
**A.** 15%

**Q.** What about the “mice survived sepsis at the end of the study (day 7)” value [5, 10] of the same compound?
**A.** 70%
